According to patent EP4755878A1, “PHOTOCHROMIC COMPOUND, PHENOL DERIVATIVE, CURABLE COMPOSITION, OPTICAL ARTICLE, LENS, AND EYEGLASS” (TOKUYAMA CORPORATION, priority 2023, dated 2025):

Key:
[1] = Photochromic properties of photochromic laminate (plastic lens) made by coating method; type: physicochemical; details: for Color developing density at 23°C: absorbance difference after 240 seconds irradiation at 23°C; for Color developing density at 35°C: absorbance difference after 240 seconds irradiation at 35°C; for Maximum absorption wavelength: after color development, second absorption wavelength (lower line of pair)
Text: First, the photochromic compound obtained in Example 1 above, a photoinitiator, and polymerizable compounds were mixed to obtain a curable composition.
As the polymerizable compounds, a blend of the following radically-polymerizable monomers in combination was used.
• Polyethylene glycol dimethacrylate (average molecular weight: 736): 42 parts by mass • Polyethylene glycol dimethacrylate (average molecular weight: 536): 12 parts by mass • Trimethylolpropane trimethacrylate: 38 parts by mass • γ-Methacryloyloxypropyltrimethoxysilane: 2 parts by mass • Glycidyl methacrylate: 1 part by mass.
Note that in the curable composition, the photochromic compound obtained in Example 1 above was added to be 0.25 mmol taking the total amount of the radically-polymerizable monomers as 100 g. The following were used as additives.
(stabilizer, Irganox 245): 1 part by mass Bis(1,2,2,6,6-pentamethyl-4-piperidyl) sebacate: 3 parts by mass Leveling agent from DuPont Toray Specialty Materials K.K. (L7001): 0.1 parts by mass.
Note that the above-mentioned additives are described with blending ratios taking a total of the radically-polymerizable monomers as 100 parts by mass.
Using this curable composition, a photochromic laminate was obtained by a lamination process described below with the polymerization described below being carried out.
First, a thiourethane plastic lens with a center thickness of 2 mm and a refractive index of 1.60 was prepared as an optical substrate. Note that the thiourethane plastic lens had been alkaline-etched beforehand in a 10% aqueous sodium hydroxide solution at 50°C for 5 minutes, and then thoroughly washed with distilled water.
A spin coater (1H-DX2, manufactured by MIKASA CO., LTD) was used to coat a surface of the above-mentioned plastic lens with a moisture-curable primer (product name: TR-SC-P, manufactured by Tokuyama Corporation) at a rotation speed of 70 rpm for 15 seconds, followed by at 1000 rpm for 10 seconds. Then, about 2 g of the photochromic curable composition obtained as above was spin-coated at a rotation speed of 60 rpm for 40 seconds, followed by at 600 rpm for 10 to 20 seconds so as to achieve a photochromic coating layer with a film thickness of 40 µm.
The lens having the surface coated with the photochromic curable composition (photochromic coating layer) was irradiated with light for 90 seconds in a nitrogen gas atmosphere using a metal halide lamp with an output of 200 mW/cm^2 to cure the coating film. The coating was then further heated at 110°C for 1 hour to produce a photochromic laminate with a photochromic layer.
Photochromic laminates were produced using the photochromic compounds obtained in Examples 2 to 19 in the same manner as in Example 20.
Photochromic laminates were obtained in the same manner as in Example 20 using photochromic compounds represented by the following formulas (A) to (F). [drawing 143] [drawing 144] [drawing 145] [drawing 146] [drawing 147] [drawing 148] [drawing 149] [drawing 150]
The resulting photochromic laminates were evaluated by the methods described below.
Table 3 summarizes the results of Examples 20, 32, and 34, and Comparative Examples 1 to 6, and Table 4 summarizes the results of Examples 21 to 31, 33, and 35 to 38. The relationship between the fading half-life at 23°C and the color development ratio at the higher temperature of the photochromic laminates according to Examples and Comparative Examples are shown in a graph in FIG. 1.
Photochromic laminates were formed using the photochromic compound obtained in Examples 61 to 71 in the same manner as in Example 20.

[2] = Photochromic properties of photochromic cured product made by kneading method; type: physicochemical; details: for Maximum absorption wavelength: 1 mm, after color development, second absorption wavelength (lower line of pair); for Color developing density at 23°C: absorbance difference after 240 seconds irradiation at 23°C; for Color developing density at 35°C: absorbance difference after 240 seconds irradiation at 35°C
Text: First, the photochromic compound obtained in Example 1, additives, and polymerizable compounds were mixed to obtain a curable composition. As the polymerizable compounds, a blend of the following polymerizable monomers in combination was used. • 1,3-Bis(isocyanatomethyl)cyclohexane: 36.7 parts by mass Pentaerythritol tetrakis(3-mercaptopropionate): 39.4 parts by mass • Polyoxyethylene polyoxypropylene lauryl ether (WONDERSURF 140 from Aoki Oil Industrial Co., Ltd.): 17.4 parts by mass 1-Decanethiol: 2.8 parts by mass • RX-1 prepared according to the method described in Patent Document 12: 3.8 parts by mass Note that in the curable composition, the photochromic compound was added to be 0.106 mmol taking the total amount of the polymerizable monomers as 100 g.
The following additives were used. Dimethyltin dichloride: 0.05 parts by mass • Irganox 245 from BASF Japan Ltd.: 0.1 parts by mass • 2-Ethylhexyl 4-methoxycinnamate: 0.6 parts by mass
The prepared curable composition was sufficiently degassed, and then injected into a glass mold provided with a gap of 1 mm, and the curable composition was polymerized via casting polymerization. […] After the polymerization, the cured product was removed from the glass mold, to obtain photochromic cured product having a thickness of 1 mm. The resulting photochromic cured product was evaluated in the same manner as in Example 23.
(Examples 51 to 60, and Comparative Examples 11 to 14) Photochromic cured products were formed using the photochromic compound shown in Table 6 in the same manner as in Example 50.

[3] = Photochromic properties of photochromic layer (binder sheet) made by binder method; details: for Color developing density at 23°C: absorbance difference after 240 seconds irradiation at 23°C; for Color developing density at 35°C: absorbance difference after 240 seconds irradiation at 35°C; for Maximum absorption wavelength: after color development, second absorption wavelength (lower line of pair)
Procedure: This is the maximum absorption wavelength after color development determined by a spectrophotometer manufactured by Otsuka Electronics Co., Ltd. (instantaneous multichannel photo detector MCPD3000) and was used as an index of a color tone upon color development.
This is a difference between an absorbance {ε(240)} after irradiation with light at the above-mentioned maximum absorption wavelength at 23°C for 240 seconds and an absorbance ε(0) when not irradiated with light, and was used as an index of a color developing density. The higher this value is, the better photochromic property is.
This is a difference between an absorbance {ε(240)} after irradiation with light at first and second absorption wavelengths at 35°C for 240 seconds and an absorbance ε(0) when not irradiated with light, and was used as an index of a color developing density. The higher this value is, the better photochromic property is.
Color developing density at 35°C (A35) /color developing density at 23°C (A23) × 100(%). The higher this value is, the smaller the difference in color developing density between the higher temperature and the lower temperature is, and the smaller the temperature dependence is.
This is the period of time required for the absorbance at a maximum absorption wavelength of a sample to decrease to 1/2 of {ε(240)-ε(0)}, when light irradiation is stopped after the sample had been irradiated with light at 23°C for 240 seconds, and was used as an index of a color fading rate. The shorter this period of time is, the higher the color fading rate is.
A binder sheet was made according to the following method. […] As the first and second optical sheets, polycarbonate sheets with a thickness of 400 µm were used.
Note that the photochromic compound was added to be 0.25 mmol relative to 100 parts by mass of the terminally non-reactive urethaneurea resin.

Row | SMILES | Color developing density at 23°C ([1]; first absorption wavelength) | Color developing density at 23°C ([1]; second absorption wavelength) | Color developing density at 35°C ([1]; first absorption wavelength) | Color developing density at 35°C ([1]; second absorption wavelength) | Maximum absorption wavelength [1] [nm] | Maximum absorption wavelength [2] [nm] | Color developing density at 23°C ([2]; first absorption wavelength) | Color developing density at 23°C ([2]; second absorption wavelength) | Color developing density at 35°C ([2]; first absorption wavelength) | Color developing density at 35°C ([2]; second absorption wavelength) | Color developing density at 23°C ([3]; first absorption wavelength) | Color developing density at 23°C ([3]; second absorption wavelength) | Color developing density at 35°C ([3]; first absorption wavelength) | Color developing density at 35°C ([3]; second absorption wavelength) | Maximum absorption wavelength [3] [nm]
1 | CCCOc1ccc(C2(c3ccc(OC)cc3)C=Cc3c4c(c5cc6c(cc5c3O2)OC(C)(C)S6)-c2ccc(N3CCCc5ccccc53)cc2C4(CCCOC)CCCOC)cc1 (stereo not drawn) [Formula (7-4)] | 1.30 - | 0.71 - | 0.90 - | 0.49 - | 622 | 625 | 1.35 - | 0.72 - | 0.95 - | 0.50 - | 1.33 - | 0.72 - | 0.89 - | 0.49 - | 622
2 | COc1ccc(C2(c3ccc(OC)cc3)C=Cc3c4c(c5ccc(Oc6ccccc6)cc5c3O2)-c2ccc(N(c3ccccc3)c3ccccc3)cc2C4(CCCCF)CCCCF)cc1 [Formula (8-2)] | 0.75 - | 0.99 - | 0.52 - | 0.69 - | 610 | 618 | 0.78 - | 1.02 - | 0.55 - | 0.70 - | 0.77 - | 1.01 - | 0.51 - | 0.69 - | 609
3 | CCCOc1ccc(C2(c3ccc(OC)cc3)C=Cc3c4c(c5cc(C)c(OC)cc5c3O2)-c2ccc(N3CCSc5ccccc53)cc2C4(CCC)CCC)cc1 (stereo not drawn) [Formula (9-2)] | 1.01 - | 0.90 - | 0.74 - | 0.66 - | 609 | 614 | 1.05 - | 0.92 - | 0.78 - | 0.69 - | 1.04 - | 0.91 - | 0.73 - | 0.64 - | 607
4 | CCCCC1(CCCC)c2cc(N(CC)c3ccccc3)ccc2-c2c1c1c(c3cc(C)c(-c4ccc(OC)cc4)cc23)OC(c2ccc(C)cc2)(c2ccc(N(C)c3ccccc3)cc2)C=C1 (stereo not drawn) [Formula (12-5)] | 0.86 - | 1.49 - | 0.64 - | 1.11 - | 624 | 632 | 0.88 - | 1.52 - | 0.67 - | 1.15 - | 0.87 - | 1.51 - | 0.61 - | 1.08 - | 625
